Source: article PMC6130198 (ACS chemical biology, 2018)

Experiments:
Syk = Syk (Homo sapiens, UniProt P43405); experiment: Z'-LYTE in vitro kinase assay; assay type: biochemical; settings: data not shown
Fes = Fes (Homo sapiens, UniProt P07332); experiment: Z'-LYTE in vitro kinase assay; assay type: biochemical; settings: data not shown
Hck = Hck (Homo sapiens, UniProt P08631); experiment: Z'-LYTE in vitro kinase assay; assay type: biochemical; settings: data not shown
Fgr = Fgr (Homo sapiens, UniProt P09769); experiment: Z'-LYTE in vitro kinase assay; assay type: biochemical; settings: data not shown
Fgr, sequence (P09769 whole entry): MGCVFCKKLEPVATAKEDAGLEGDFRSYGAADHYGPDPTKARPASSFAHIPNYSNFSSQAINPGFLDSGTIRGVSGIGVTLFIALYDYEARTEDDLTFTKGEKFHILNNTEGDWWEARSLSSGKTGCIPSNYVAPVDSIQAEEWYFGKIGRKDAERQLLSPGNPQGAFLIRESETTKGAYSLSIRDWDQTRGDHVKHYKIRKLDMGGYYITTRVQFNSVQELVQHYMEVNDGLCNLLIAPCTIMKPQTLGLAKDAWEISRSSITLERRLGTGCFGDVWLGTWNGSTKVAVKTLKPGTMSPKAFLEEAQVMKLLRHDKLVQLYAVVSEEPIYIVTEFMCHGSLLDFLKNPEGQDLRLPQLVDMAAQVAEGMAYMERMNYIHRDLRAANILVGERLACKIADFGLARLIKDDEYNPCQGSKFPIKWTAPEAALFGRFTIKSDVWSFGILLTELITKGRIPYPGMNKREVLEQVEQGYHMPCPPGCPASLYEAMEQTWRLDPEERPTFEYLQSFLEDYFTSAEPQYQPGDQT

MV4–11 AML cells = experiment: MV4–11 AML cell xenograft model in NSG mice; settings: 10 mg/kg once daily oral gavage, three weeks
[1] = target: other myeloid Src-family kinases; experiment: In vitro kinase assay; assay type: biochemical; settings: data not shown
Flt3-ITD = experiment: Z'-LYTE in vitro kinase assay; assay type: biochemical; settings: stated in words only

Fes, sequence (P07332 whole entry): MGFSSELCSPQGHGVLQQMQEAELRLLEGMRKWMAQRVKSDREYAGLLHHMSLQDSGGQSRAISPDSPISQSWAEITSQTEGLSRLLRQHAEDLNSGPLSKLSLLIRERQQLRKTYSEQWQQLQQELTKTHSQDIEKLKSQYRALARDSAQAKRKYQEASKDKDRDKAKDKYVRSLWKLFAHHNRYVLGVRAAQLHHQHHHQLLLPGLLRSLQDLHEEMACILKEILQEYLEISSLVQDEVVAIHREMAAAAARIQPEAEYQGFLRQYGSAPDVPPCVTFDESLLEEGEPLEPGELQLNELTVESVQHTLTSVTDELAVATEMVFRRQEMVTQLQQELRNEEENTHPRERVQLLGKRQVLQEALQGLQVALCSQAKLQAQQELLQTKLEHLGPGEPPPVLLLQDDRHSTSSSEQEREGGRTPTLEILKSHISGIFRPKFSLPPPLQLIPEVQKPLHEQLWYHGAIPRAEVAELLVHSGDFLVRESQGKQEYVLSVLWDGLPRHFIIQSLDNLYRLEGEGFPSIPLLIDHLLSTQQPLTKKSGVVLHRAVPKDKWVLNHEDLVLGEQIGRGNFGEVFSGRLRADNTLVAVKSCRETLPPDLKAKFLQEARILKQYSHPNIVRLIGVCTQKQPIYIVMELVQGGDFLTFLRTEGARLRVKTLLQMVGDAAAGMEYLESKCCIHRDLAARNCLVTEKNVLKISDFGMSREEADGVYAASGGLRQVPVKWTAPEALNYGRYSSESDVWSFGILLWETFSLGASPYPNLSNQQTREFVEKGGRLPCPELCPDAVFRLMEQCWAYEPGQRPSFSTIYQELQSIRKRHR
Hck, sequence (P08631 whole entry): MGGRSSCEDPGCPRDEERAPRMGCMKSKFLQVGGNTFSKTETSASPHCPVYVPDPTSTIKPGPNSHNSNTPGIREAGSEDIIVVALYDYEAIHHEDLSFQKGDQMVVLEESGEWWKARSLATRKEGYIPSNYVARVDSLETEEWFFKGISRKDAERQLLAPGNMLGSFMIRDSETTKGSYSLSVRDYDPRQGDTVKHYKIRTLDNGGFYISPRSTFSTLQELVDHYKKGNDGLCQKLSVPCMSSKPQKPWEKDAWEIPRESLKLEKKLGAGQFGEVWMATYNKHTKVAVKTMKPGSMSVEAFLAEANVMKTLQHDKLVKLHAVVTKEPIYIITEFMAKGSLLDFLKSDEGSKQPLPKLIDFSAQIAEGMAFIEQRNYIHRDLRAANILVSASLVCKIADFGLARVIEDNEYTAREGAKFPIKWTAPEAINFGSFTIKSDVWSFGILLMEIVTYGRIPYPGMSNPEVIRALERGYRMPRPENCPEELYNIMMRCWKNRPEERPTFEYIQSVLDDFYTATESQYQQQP

| SMILES | inhibition of kinase in vitro (Syk) | inhibition of kinase in vitro (Fes) | inhibition of kinase in vitro (Hck) | inhibition of kinase in vitro (Fgr) | MV4–11 cells in bone marrow thin sections (human CD45 immunohistochemistry) (MV4–11 AML cells) | MV4–11 cells in spleen thin sections (human CD45 immunohistochemistry) (MV4–11 AML cells) | effect on leukemic cells in the peripheral blood (MV4–11 AML cells; flow cytometry) | effect on spleen engraftment of MV4–11 cells (MV4–11 AML cells; flow cytometry) | reduction of bone marrow engraftment of MV4–11 cells (MV4–11 AML cells; flow cytometry) | IC50 [1] | inhibition of Flt3-ITD kinase activity in vitro (Flt3-ITD) |
| --- | --- | --- | --- | --- | --- | --- | --- | --- | --- | --- | --- |
| CC(C)(C)c1cc(NC(=O)Nc2ccc(-c3cn4c(n3)sc3cc(OCCN5CCOCC5)ccc34)cc2)no1 [quizartinib] | does not inhibit | does not inhibit | does not inhibit | does not inhibit | – | – | – | – | – | – | – |
| CNC(=O)c1cc(Oc2ccc(NC(=O)Nc3ccc(Cl)c(C(F)(F)F)c3)cc2)ccn1 [sorafenib] | does not inhibit | does not inhibit | does not inhibit | does not inhibit | still stained strongly for MV4–11 cells | still stained strongly for MV4–11 cells | significant reduction | no effect | no effect | > 100 µM | nM inhibitor |
| CCN(CC)CCNC(=O)c1c(C)[nH]c(/C=C2\C(=O)Nc3ccc(F)cc32)c1C [sunitinib] | – | – | does not inhibit | does not inhibit | – | – | – | – | – | – | – |
| COc1cc2c(N3CCN(C(=O)Nc4ccc(OC(C)C)cc4)CC3)ncnc2cc1OCCCN1CCCCC1 [tandutinib] | does not inhibit | does not inhibit | does not inhibit | does not inhibit | – | – | – | – | – | – | – |
